# Biological target: T1, MAT2A homodimer (Homo sapiens, UniProt P31153)
# T1 construct: inferred from Ni sepharose purification and imidazole elution; made in house; host or cells: Sf9 insect cells, recombinant baculovirus (Bac to Bac, pFASTBAC1)
# Assay: Biochemical assay: inhibition of MAT2A (phosphate release, PiColorLock Gold)
# Details: MAT2A IC50 score; read-out: Enzyme Inhibition (Example 275)
# Procedure: Mat2A protein was expressed by recombinant baculovirus in SF9 infected cells using the Bac to Bac system cloned into the pFASTBAC1 vector (Invitrogen, Carlsbad, Calif.). Recombinant MAT2A was isolated from the cell lysate of 150 g of infected cells using HP Ni sepharose column chromatography. Recombinant MAT2A homodimer was eluted with 250 and 500 mM imidazole, and fractions containing MAT2A were identified by sodium dodecyl sulfate polyacrylamide gel electrophoresis and pooled.
# For determination of the inhibitory potency of compounds against the MAT2A homodimer, protein was diluted to […] in assay buffer (50 mM Tris, pH 8.0, 50 mM KCl, 15 mM MgCl2, 0.3 mM EDTA, 0.005% [w/v] bovine serum albumin [BSA]). Test compound was prepared in 100% dimethyl sulfoxide (DMSO) at 50× the desired final concentration. […] of compound dilution was added to 40 μL of enzyme dilution and the mixture was allowed to equilibrate for 60 minutes at 25° C. The enzymatic assay was initiated by the addition of 10 μL of substrate mix (500 μM ATP, pH 7.0, 400 μM L-methionine in 1× assay buffer), and the mixture was incubated for a further 60 minutes at 25° C. The reaction was halted and the liberated phosphate released by the enzyme in stoichiometric amounts by the production of S-adenosyl methionine (SAM) was measured using the PiColorLock Gold kit (Innova Biosciences, UK). Absolute product amounts were determined by comparison to a standard curve of potassium phosphate buffer, pH 8.0.
# T1 sequence (P31153 whole entry): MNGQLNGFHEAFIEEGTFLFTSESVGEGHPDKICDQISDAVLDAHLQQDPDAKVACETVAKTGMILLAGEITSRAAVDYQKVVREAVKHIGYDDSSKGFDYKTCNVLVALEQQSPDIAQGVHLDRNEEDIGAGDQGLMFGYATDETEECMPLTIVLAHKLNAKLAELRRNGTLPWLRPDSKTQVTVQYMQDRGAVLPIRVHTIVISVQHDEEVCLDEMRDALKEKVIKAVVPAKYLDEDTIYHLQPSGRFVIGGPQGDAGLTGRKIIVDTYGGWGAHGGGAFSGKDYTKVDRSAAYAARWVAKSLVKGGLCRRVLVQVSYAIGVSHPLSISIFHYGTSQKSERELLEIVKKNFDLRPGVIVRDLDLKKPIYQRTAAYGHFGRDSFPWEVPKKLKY
row,SMILES,IC50
1,"Cn1cnc2ccc(-n3cc4cnc(OCC(F)(F)F)nc4c(-c4ccc(OC(F)F)cc4)c3=O)cc21 [Example 263, 8-(4-(difluoromethoxy)phenyl)-6-(1-methyl-1H-benzo[d]imidazol-6-yl)-2-(2,2,2-trifluoroethoxy)pyrido[4,3-d]pyrimidin-7(6H)-one]",< 100 nM
2,"COc1ccc(-c2c(=O)n(-c3ccc(=O)n(C)c3)cc3cnc(NCC(F)(F)F)nc23)cc1 [Example 194, 8-(4-methoxyphenyl)-6-(1-methyl-6-oxo-1,6-dihydropyridin-3-yl)-2-((2,2,2-trifluoroethyl)amino)pyrido[4,3-d]pyrimidin-7(6H)-one]",100 to 1000 nM
3,"O=C1N(c2cn[nH]c2)Cc2cnc(NCC3CC3)nc2C12CCN(Cc1ccccc1F)C2 (stereo not shown) [Example 122, 2-((cyclopropylmethyl)amino)-1′-(2-fluorobenzyl)-6-(1H-pyrazol-4-yl)-5,6-dihydro-7H-spiro[pyrido[4,3-d]pyrimidine-8,3′-pyrrolidin]-7-one]",100 to 1000 nM
4,"COc1ccc(-c2c(=O)n(-c3cnoc3)cc3cnc(NCC(F)(F)F)nc23)cc1 [Example 207, 6-(isoxazol-4-yl)-8-(4-methoxyphenyl)-2-((2,2,2-trifluoroethyl)amino)pyrido[4,3-d]pyrimidin-7(6H)-one]",100 to 1000 nM
5,"CCCNc1ncc2cn(-c3ccc(OC)cc3)c(=O)c(-c3ccc(Br)cc3)c2n1 [Example 191, 8-(4-bromophenyl)-6-(4-methoxyphenyl)-2-(propylamino)pyrido[4,3-d]pyrimidin-7(6H)-one]",< 100 nM
6,"Cn1cc2cc(-n3cc4ccc(CS(C)(=O)=O)nc4c(-c4ccc(Cl)cc4)c3=O)ccc2n1 [Example 135-A, 8-(4-chlorophenyl)-6-(2-methyl-2H-indazol-5-yl)-2-((methylsulfonyl)methyl)-1,6-naphthyridin-7(6H)-one]",100 to 1000 nM
7,"Cn1cc(-n2cc3cnc(NCC(F)(F)F)nc3c(-c3ccc(Cl)cc3)c2=O)ccc1=O [Example 140, 8-(4-chlorophenyl)-6-(1-methyl-6-oxo-1,6-dihydropyridin-3-yl)-2-((2,2,2-trifluoroethyl)amino)pyrido[4,3-d]pyrimidin-7(6H)-one]",100 to 1000 nM
8,"O=c1c(-c2ccc(OC(F)F)cc2)c2nc(SCC(F)(F)F)ncc2cn1-c1ccc2ncccc2c1 [Example 274, 8-(4-(difluoromethoxy)phenyl)-6-(quinolin-6-yl)-2-(2,2,2-trifluoroethylthio)pyrido[4,3-d]pyrimidin-7(6H)-one]",< 100 nM
9,"O=c1c(-c2ccc(OC(F)F)cc2)c2nc(N3CCC3)ncc2cn1-c1ccc2ncccc2c1 [Example 185, 2-(azetidin-1-yl)-8-(4-(difluoromethoxy)phenyl)-6-(quinolin-6-yl)pyrido[4,3-d]pyrimidin-7(6)-one]",1000 to 10000 nM
10,"COc1ccc(-n2cc3cnc(NCC(F)(F)F)nc3c(-c3ccc(N4CCC4)cc3)c2=O)cc1 [Example 204, 8-(4-(azetidin-1-yl)phenyl)-6-(4-methoxyphenyl)-2-((2,2,2-trifluoroethyl)amino)pyrido[4,3-d]pyrimidin-7(6H)-one]",100 to 1000 nM
11,"COc1ccc(-n2cc3cnc(NCC(F)(F)F)nc3c(-c3ccc(C(F)(F)F)cc3)c2=O)cc1 [Example 197, 6-(4-methoxyphenyl)-2-((2,2,2-trifluoroethyl)amino)-8-(4-(trifluoromethyl)phenyl)pyrido[4,3-d]pyrimidin-7(6H)-one]",100 to 1000 nM
12,"O=c1c(-c2ccc(C3CC3)cc2)c2nc(NCC(F)(F)F)ncc2cn1-c1ccc2c(c1)CCO2 [Example 164, 8-(4-cyclopropylphenyl)-6-(2,3-dihydrobenzofuran-5-yl)-2-((2,2,2-trifluoroethyl)amino)pyrido[4,3-d]pyrimidin-7(6H)-one]",< 100 nM
13,"O=C1N(c2cnoc2)Cc2cnc(NCC3CC3)nc2C12CCN(Cc1ccon1)C2 (stereo not shown) [Example 106, 2-((cyclopropylmethyl)amino)-1′-(isoxazol-3-ylmethyl)-6-(isoxazol-4-yl)-5H-spiro[pyrido[4,3-d]pyrimidine-8,3′-pyrrolidin]-7(6H)-one]",1000 to 10000 nM

# — patent publication US11524960B2, “Heterobicyclic inhibitors of MAT2A and methods of use for treating cancer” (AGIOS PHARMACEUTICALS, INC., priority 2018, dated 2022)
